Several values for one entry are separate records, joined by “and”; a condition that tells them apart may be missing. Equal values may be shown once. Toxic doses and inconclusive results are not listed. No stated cut-off is given here; in the data, active means T/C of 150% or more; inactive means T/C below 125%.
System: L1210 leukemia ip in BDF1 mice, survival T/C
Assay: NCI In Vivo Anticancer Drug Screen. Data for tumor model L1210 Leukemia (intraperitoneal) in B6D2F1 (BDF1) mice
Settings: endpoint: mean survival time, higher = longer survival
Method in brief: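 In this screen, tumor-bearing mice given compound are compared to those given vehicle, and their survival values are reported as a treated-to-control quotient.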

[1] = dose: 50.0 mg/kg/injection, schedule: Q01DX009 (ip), vehicle: saline with Tween-80
[2] = dose: 100.0 mg/kg/injection, schedule: Q04DX003 (ip), vehicle: saline with Tween-80
[3] = dose: 200.0 mg/kg/injection, schedule: Q04DX003 (ip), vehicle: saline with Tween-80
[4] = dose: 100.0 mg/kg/injection, schedule: Q01DX009 (ip), vehicle: saline with Tween-80
[5] = dose: 200.0 mg/kg/injection, schedule: Q01DX009 (ip), vehicle: saline with Tween-80
[6] = dose: 400.0 mg/kg/injection, schedule: Q01DX009 (ip), vehicle: saline with Tween-80
[7] = dose: 100.0 mg/kg/injection, schedule: Q01DX009 (ip), vehicle: Klucel (hydroxypropylcellulose) (HPC)
[8] = dose: 200.0 mg/kg/injection, schedule: Q01DX009 (ip), vehicle: Klucel (hydroxypropylcellulose) (HPC)
[9] = dose: 400.0 mg/kg/injection, schedule: Q01DX009 (ip), vehicle: Klucel (hydroxypropylcellulose) (HPC)
[10] = dose: 400.0 mg/kg/injection, schedule: Q04DX003 (ip), vehicle: saline with Tween-80
[11] = dose: 100.0 mg/kg/injection, schedule: Q04DX003 (ip), vehicle: Klucel (hydroxypropylcellulose) (HPC)
[12] = dose: 200.0 mg/kg/injection, schedule: Q04DX003 (ip), vehicle: Klucel (hydroxypropylcellulose) (HPC)
[13] = dose: 400.0 mg/kg/injection, schedule: Q04DX003 (ip), vehicle: Klucel (hydroxypropylcellulose) (HPC)
[14] = dose: 100.0 mg/kg/injection, schedule: Q04DX002 (ip), vehicle: Klucel (hydroxypropylcellulose) (HPC)
[15] = dose: 200.0 mg/kg/injection, schedule: Q04DX002 (ip), vehicle: Klucel (hydroxypropylcellulose) (HPC)
[16] = dose: 100.0 mg/kg/injection, schedule: Q04DX003 (ip), vehicle: saline
[17] = dose: 200.0 mg/kg/injection, schedule: Q04DX003 (ip), vehicle: saline
[18] = dose: 50.0 mg/kg/injection, schedule: Q04DX002 (ip), vehicle: Klucel (hydroxypropylcellulose) (HPC)

Measured: T/C

COc1cc([N+](=O)[O-])ccc1S(=O)(=O)Cl
inactive: dose: 25.0 mg/kg/injection, schedule: Q01DX009 (ip), vehicle: saline with Tween-80 91 % of control | dose: 25.0 mg/kg/injection, schedule: Q04DX002 (ip), vehicle: saline with Tween-80 104 % of control | dose: 25.0 mg/kg/injection, schedule: Q04DX003 (ip), vehicle: saline with Tween-80 97 % of control | dose: 50.0 mg/kg/injection, schedule: Q01DX001 (ip), vehicle: saline with Tween-80 101 % of control | [1] 91 % of control | dose: 50.0 mg/kg/injection, schedule: Q04DX002 (ip), vehicle: saline with Tween-80 93 % of control and 120 % of control | dose: 50.0 mg/kg/injection, schedule: Q04DX003 (ip), vehicle: saline with Tween-80 103 % of control | dose: 100.0 mg/kg/injection, schedule: Q01DX001 (ip), vehicle: saline with Tween-80 92 % of control | [2] 94 % of control | [3] 88 % of control

c1ccc(-c2cc[s+]s2)cc1
inactive: dose: 12.5 mg/kg/injection, schedule: Q01DX009 (ip), vehicle: water 95 % of control | dose: 12.5 mg/kg/injection, schedule: Q04DX003 (ip), vehicle: water 98 % of control | dose: 25.0 mg/kg/injection, schedule: Q01DX009 (ip), vehicle: water 91 % of control | dose: 25.0 mg/kg/injection, schedule: Q04DX003 (ip), vehicle: water 96 % of control | dose: 50.0 mg/kg/injection, schedule: Q01DX009 (ip), vehicle: water 98 % of control | dose: 50.0 mg/kg/injection, schedule: Q04DX003 (ip), vehicle: water 109 % of control

CC(=O)NC1CCc2ccccc2-c2cccc(=O)cc21 (stereo not drawn)
inactive: dose: 0.1 mg/kg/injection, schedule: Q01DX009 (ip), vehicle: Klucel (hydroxypropylcellulose) (HPC) 108 % of control | dose: 0.2 mg/kg/injection, schedule: Q01DX009 (ip), vehicle: Klucel (hydroxypropylcellulose) (HPC) 113 % of control and 124 % of control | dose: 0.39 mg/kg/injection, schedule: Q01DX009 (ip), vehicle: Klucel (hydroxypropylcellulose) (HPC) 118 % of control | dose: 0.78 mg/kg/injection, schedule: Q01DX009 (ip), vehicle: Klucel (hydroxypropylcellulose) (HPC) 86 % of control | dose: 0.78 mg/kg/injection, schedule: Q01DX009 (ip), vehicle: saline 116 % of control

O=C(NCc1cnccn1)c1ccc(Cl)c(Cl)c1
inactive: [4] 98 % of control | [5] 98 % of control | [6] 106 % of control

CC(C)(C)N1CC(C(=O)c2ccccc2)C1c1ccccc1 (stereo not drawn)
inactive: dose: 100.0 mg/kg/injection, schedule: Q01DX001 (ip), vehicle: saline 94 % of control | [7] 96 % of control | [2] 96 % of control and 107 % of control | dose: 200.0 mg/kg/injection, schedule: Q01DX001 (ip), vehicle: saline 94 % of control | [8] 101 % of control | [3] 90 % of control and 94 % of control | dose: 400.0 mg/kg/injection, schedule: Q01DX001 (ip), vehicle: saline 92 % of control | [9] 100 % of control | [10] 96 % of control and 98 % of control

O=C(O)C1=C(C(=O)O)C2C=CC1N2Cc1ccccc1
inactive: dose: 100.0 mg/kg/injection, schedule: Q01DX001 (ip), vehicle: other 96 % of control | dose: 200.0 mg/kg/injection, schedule: Q01DX001 (ip), vehicle: other 102 % of control

COc1ccc2c(c1)CN(S(=O)(=O)c1ccc(C)cc1)C=CC2=O
inactive: [7] 96 % of control | [11] 90 % of control | [8] 104 % of control | [12] 96 % of control | [9] 96 % of control | [13] 98 % of control

NC(=Nc1ccc(N)cc1)C(N)=Nc1ccc(N)cc1
inactive: [1] 97 % of control | [4] 95 % of control and 98 % of control | [2] 96 % of control | [5] 106 % of control | [3] 98 % of control | [6] 96 % of control and 112 % of control | [10] 91 % of control

CN(C)c1ccc(/C=C2\CC(C)(C)c3ccccc3C2=O)cc1
inactive: dose: 100.0 mg/kg/injection, schedule: Q04DX003 (ip), vehicle: saline sonified 103 % of control | dose: 200.0 mg/kg/injection, schedule: Q04DX003 (ip), vehicle: saline sonified 97 % of control | dose: 400.0 mg/kg/injection, schedule: Q04DX003 (ip), vehicle: saline sonified 103 % of control

CCOC(=O)C(C)(C)C(=O)C(C)C
inactive: [14] 100 % of control | [15] 95 % of control | dose: 400.0 mg/kg/injection, schedule: Q04DX002 (ip), vehicle: Klucel (hydroxypropylcellulose) (HPC) 103 % of control

CCOP(=O)(OCC)C(=O)N(CC)CC
inactive: [7] 101 % of control | [8] 90 % of control | [9] 91 % of control

CCCCc1cccc(N2C(N)=NC(N)=NC2(C)C)c1
inactive: dose: 12.5 mg/kg/injection, schedule: Q01DX001 (ip), vehicle: saline 103 % of control | dose: 50.0 mg/kg/injection, schedule: Q01DX001 (ip), vehicle: saline 89 % of control

Nc1c(-c2ccccc2)nnn1-c1ccc2ccccc2c1
inactive: dose: 100.0 mg/kg/injection, schedule: Q04DX002 (ip), vehicle: gum acacia 101 % of control | dose: 200.0 mg/kg/injection, schedule: Q04DX002 (ip), vehicle: gum acacia 96 % of control | dose: 400.0 mg/kg/injection, schedule: Q04DX002 (ip), vehicle: gum acacia 96 % of control

Cc1ccc2c[n+]3cc4ccccc4cc3cc2c1
inactive: dose: 1.56 mg/kg/injection, schedule: Q04DX003 (ip), vehicle: saline 93 % of control | dose: 3.12 mg/kg/injection, schedule: Q01DX009 (ip), vehicle: saline 107 % of control | dose: 3.12 mg/kg/injection, schedule: Q04DX003 (ip), vehicle: saline 114 % of control | dose: 6.25 mg/kg/injection, schedule: Q01DX009 (ip), vehicle: saline 105 % of control | dose: 6.25 mg/kg/injection, schedule: Q04DX003 (ip), vehicle: saline 103 % of control | dose: 12.5 mg/kg/injection, schedule: Q04DX003 (ip), vehicle: saline 107 % of control

C/C=C/COc1cc[n+]([O-])cc1
inactive: [16] 102 % of control | [17] 107 % of control

CCOC(=O)c1ccc(OC(=O)Nc2ccc(Cl)cc2OC)cc1
inactive: dose: 100.0 mg/kg/injection, schedule: Q01DX009 (ip), vehicle: saline 87 % of control | dose: 200.0 mg/kg/injection, schedule: Q01DX009 (ip), vehicle: saline 100 % of control

CC(=O)NC(C)C(C)C (stereo not drawn)
inactive: [16] 94 % of control | [17] 107 % of control | dose: 400.0 mg/kg/injection, schedule: Q04DX003 (ip), vehicle: saline 104 % of control

COc1ccc(C(=O)CC2CCCC(CC(=O)c3ccc(OC)cc3)N2C)cc1 (stereo not drawn)
inactive: dose: 75.0 mg/kg/injection, schedule: Q01DX001 (ip), vehicle: other 98 % of control | dose: 150.0 mg/kg/injection, schedule: Q01DX001 (ip), vehicle: other 90 % of control

NC(=O)N1C(=O)C=CC1=O
inactive: [18] 96 % of control | [7] 105 % of control | [14] 100 % of control | [8] 91 % of control

COc1ccc(S(=O)(=O)NC(=O)NC(=O)CC=C(C)C)cc1
inactive: [18] 103 % of control | [7] 105 % of control | [14] 96 % of control | [11] 110 % of control | [8] 95 % of control | [15] 103 % of control | [12] 98 % of control | [9] 97 % of control | [13] 104 % of control

CCOc1cc(/C=N/NC(=O)C(O)C(O)C(O)C(O)CO)ccc1O (stereo not drawn)
inactive: [4] 98 % of control and 103 % of control | dose: 100.0 mg/kg/injection, schedule: Q04DX002 (ip), vehicle: saline with Tween-80 100 % of control and 90 % of control | [2] 95 % of control | [5] 95 % of control and 91 % of control | dose: 200.0 mg/kg/injection, schedule: Q04DX002 (ip), vehicle: saline with Tween-80 108 % of control and 116 % of control | [3] 95 % of control | [6] 88 % of control and 90 % of control | dose: 400.0 mg/kg/injection, schedule: Q04DX002 (ip), vehicle: saline with Tween-80 90 % of control and 91 % of control | [10] 93 % of control

OCC1C2CCC(C2)C1c1ccccc1 (stereo not drawn)
inactive: dose: 9.38 mg/kg/injection, schedule: Q01DX001 (ip), vehicle: saline 103 % of control

O=C(COc1ccc(Cl)cc1)N(c1ccccc1)C1CCCCC1
inactive: [7] 96 % of control | [8] 96 % of control | [9] 94 % of control
